pIC50: −log10 of the molar value. Blank lines part the entries; values can stand above or below the compound they belong to. Calls of active or inactive are those of the source. No cut-off for these calls is given here.
Experiments:
HCT-116 [1] = assay: Anticancer activity against human HCT116 cells assessed as growth inhibition at 50 uM by CCK-8 assay; type: functional
HCT-116 [2] = assay: Anticancer activity against human HCT116 cells assessed as growth inhibition by CCK-8 assay; type: functional, cell-based
HCT-116 [3] = assay: Induction of DNA damage in human HCT116 cells at G0/G1 phase at 100 nM after 24 hrs by gamma-H2AX-staining based-flow cytometry; type: functional, cell-based
HCT-116 [4] = assay: Decrease in mitotic index in human HCT116 cells at 100 nM after 20 and 24 hrs by flow cytometry; type: functional, cell-based
HCT-116 [5] = assay: Decrease in mitotic index in human HCT116 cells at 30 and 50 uM by flow cytometry; type: functional, cell-based; conditions: TDE = time-dependent effect
HCT-116 [6] = assay: Cell cycle arrest in human HCT116 cells assessed as decrease in number of cells at S phase at 20 and 30 uM after 20 hrs by propidium-iodide staining based flow cytometry; type: functional
HCT-116 [7] = assay: Cell cycle arrest in human HCT116 cells assessed as increase in number of cells at G2/M phase at 20 and 30 uM after 20 hrs by propidium-iodide staining based flow cytometry; type: functional
HCT-116 [8] = assay: Cell cycle arrest in human HCT116 cells assessed as decrease in number of cells at G0/G1 phase at 20 and 30 uM after 20 hrs by propidium-iodide staining based flow cytometry; type: functional
HCT-116 [9] = assay: Induction of DNA damage in human HCT116 cells at G0/G1 phase at 20 and 30 uM after 24 hrs by gamma-H2AX-staining based-flow cytometry; type: functional, cell-based
HCT-116 [10] = assay: Decrease in mitotic index in human HCT116 cells after 20 and 24 hrs by flow cytometry; type: functional, cell-based
HCT-116 [11] = assay: Induction of apoptosis in human HCT116 cells at 30 uM after 30 hrs by annexin-V/7-AAD staining based flow cytometry; type: functional
HCT-116 [12] = assay: Induction of DNA damage in human HCT116 cells at G0/G1 phase at 30 uM after 24 hrs by gamma-H2AX-staining based-flow cytometry; type: functional, cell-based
HCT-116 [13] = assay: Induction of DNA damage in human HCT116 cells at G0/G1 phase at 20 nM after 24 hrs by gamma-H2AX-staining based-flow cytometry; type: functional, cell-based
HCT-116 [14] = assay: Increase in mitotic index in human HCT116 cells at 20 nM after 20 and 24 hrs by flow cytometry; type: functional, cell-based

Structure (SMILES): CCOC(=O)c1csc(-c2csc(-c3csc([C@H](C)NC(=O)OC(C)(C)C)n3)n2)n1
inhibition (HCT-116 [1]): Active

Structure (SMILES): C[C@H](NC(=O)OC(C)(C)C)c1nc(-c2nc(-c3nc(C(N)=S)cs3)cs2)cs1
inhibition at 50 µM (HCT-116 [1]): 70%
pIC50 (HCT-116 [2]): 4.42

Structure (SMILES): COc1cccc2c1C(=O)c1c(O)c3c(c(O)c1C2=O)C[C@@](O)(C(=O)CO)C[C@@H]3O[C@H]1C[C@H](N)[C@H](O)[C@H](C)O1
Activity (HCT-116 [3]): Active
inhibition (HCT-116 [4]): Active

Structure (SMILES): CC(=O)O[C@H]1C(=O)[C@@]2(C)[C@H]([C@H](OC(=O)c3ccccc3)[C@]3(O)C[C@H](OC(=O)[C@H](O)[C@@H](NC(=O)c4ccccc4)c4ccccc4)C(C)=C1C3(C)C)[C@]1(OC(C)=O)CO[C@@H]1C[C@@H]2O
Activity (HCT-116 [13]): Active
Activity (HCT-116 [14]): Active

Structure (SMILES): CCOC(=O)c1csc(-c2csc(-c3csc([C@@H](C)NC(=O)OC(C)(C)C)n3)n2)n1
inhibition (HCT-116 [1]): Active

Now from value to compound, other results behind:

pIC50 (HCT-116 [2]): 5.12
Structure (SMILES): C[C@H](NC(=O)OC(C)(C)C)c1nc(-c2nc(-c3nc(C(N)=O)cs3)cs2)cs1
inhibition (HCT-116 [5]): tde
Activity (HCT-116 [6]): Active
Activity (HCT-116 [7]): Active
inhibition at 50 µM (HCT-116 [1]): 70%
Activity (HCT-116 [8]): Active
Activity (HCT-116 [9]): Active
inhibition (HCT-116 [10]): Dose-dependent effect
Activity (HCT-116 [11]): 60%

pIC50 (HCT-116 [2]): 4.65
Structure (SMILES): C[C@@H](NC(=O)OC(C)(C)C)c1nc(-c2nc(-c3nc(C(N)=O)cs3)cs2)cs1
inhibition at 50 µM (HCT-116 [1]): 70%
Activity (HCT-116 [12]): Active
Activity (HCT-116 [11]): 30%

pIC50 (HCT-116 [2]): 4.34
Structure (SMILES): C[C@@H](NC(=O)OC(C)(C)C)c1nc(-c2nc(-c3nc(C(N)=S)cs3)cs2)cs1
inhibition at 50 µM (HCT-116 [1]): 70%

— ChEMBL document CHEMBL3632493, “Design, synthesis and anticancer mechanistic studies of linked azoles” (Medchemcomm, 2015)
